# In patent US8648105B2, “Diarylthiohydantoin compounds” (The Regents of the University of California, priority 2006, dated 2014):
# Positions count from the first letter of the chain named. Entries after “also recorded” stand apart in the source; their conditions may differ.
# Tests used:
# AR = target: T1, AR (Homo sapiens, UniProt P10275); assay type: cell-based; parameters: Fold induction, AR response reporter
# T1 sequence (P10275 1-920): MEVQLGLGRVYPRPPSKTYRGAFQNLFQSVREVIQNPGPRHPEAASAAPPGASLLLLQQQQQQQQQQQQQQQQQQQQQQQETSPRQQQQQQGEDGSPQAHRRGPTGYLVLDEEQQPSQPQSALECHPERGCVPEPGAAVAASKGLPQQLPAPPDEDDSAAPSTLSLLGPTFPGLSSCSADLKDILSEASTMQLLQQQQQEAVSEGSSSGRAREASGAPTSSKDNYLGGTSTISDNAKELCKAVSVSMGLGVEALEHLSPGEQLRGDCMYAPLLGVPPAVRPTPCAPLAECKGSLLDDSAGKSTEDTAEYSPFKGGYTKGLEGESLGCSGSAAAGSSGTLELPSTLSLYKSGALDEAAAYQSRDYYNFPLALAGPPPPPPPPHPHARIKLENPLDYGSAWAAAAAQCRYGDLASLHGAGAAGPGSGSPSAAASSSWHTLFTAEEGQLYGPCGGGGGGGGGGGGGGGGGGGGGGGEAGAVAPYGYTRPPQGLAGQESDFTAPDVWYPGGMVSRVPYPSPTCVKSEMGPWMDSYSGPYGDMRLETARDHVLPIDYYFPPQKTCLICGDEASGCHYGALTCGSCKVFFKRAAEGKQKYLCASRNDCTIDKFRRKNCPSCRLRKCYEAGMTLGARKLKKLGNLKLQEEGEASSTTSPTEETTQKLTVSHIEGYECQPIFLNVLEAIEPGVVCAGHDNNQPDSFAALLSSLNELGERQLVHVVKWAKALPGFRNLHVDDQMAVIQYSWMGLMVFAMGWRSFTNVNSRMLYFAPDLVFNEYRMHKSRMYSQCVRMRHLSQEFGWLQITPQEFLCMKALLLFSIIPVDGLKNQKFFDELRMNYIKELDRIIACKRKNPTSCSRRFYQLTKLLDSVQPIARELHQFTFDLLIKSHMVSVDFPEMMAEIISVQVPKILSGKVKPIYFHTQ
# Procedure: It is well established that PSA levels are indicators of AR activities in prostate cancer. […] The LNCaP-AR cells are a line of lymph node carcinoma of prostate cells transduced with a plasmid that makes express androgen receptors. […] After four days incubation, secreted PSA levels were assayed using PSA ELISA kits (American Qualex, San Clemente, Calif.)
# urogenital tract = assay: Luciferase transgenic mice with testosterone pellet, urogenital tract weight and photon emission (FIG. 22); assay type: in vivo; settings: castrated mice with testosterone pellet, 10 mg/kg per day, 14 days
# Procedure: FIG. 22 presents results of an experiment conducted with wild type nontransgenic mice (WT), castrated luciferase transgenic mice (Cast), and non-castrated luciferase transgenic mice (Intact). Data are shown for castrated luciferase transgenic mice treated with an implanted testosterone pellet yielding 12.5 mg per kilogram body weight with a 90 day release period (T/Cast), and data are shown for non-castrated luciferase transgenic mice treated with an implanted testosterone pellet yielding 12.5 mg per kilogram body weight with a 90 day release period (Intact+T). […]. (A) Urogenital tract weight at 14 days. (B) Photon emission rate at 14 days. In all cases, a hormone refractory disease state was not induced.
# […]. Moreover, the higher the dose, the lower the PSA level. […]. The weight and rate of photon emission increased for both intact and castrated mice.
# androgen receptor [1] = target: T2, androgen receptor (Homo sapiens, UniProt P10275, T878A); settings: 10 uM (R1881 1 nM), LNCaP
# T2 sequence (P10275 1-920 T878A): T1 sequence (P10275 1-920) with T878A
# androgen receptor [2] = target: T2, androgen receptor; settings: 10 uM, 24 hours, with or without 100 pM R1881, LNCaP
# [3] = target: T3, androgen receptor (AR) and RNA polymerase II (Pol II) (Homo sapiens, UniProt P10275, T878A); settings: 10 uM, 6 hours, LNCaP
# T3 sequence (P10275 1-920 T878A): T1 sequence (P10275 1-920) with T878A
# Procedure: LNCaP (ATCC) cells were plated in full serum. On the day of the experiment, the plate was washed once with 1×PBS and 5% CSS was added for 3 days. […] Each of these compounds was added for 6 hours. In a fourth set of experiments, a control, no additional compound was added (−). 6 hours timepoint was run at 28 cycles.
# [4] = system: LN-AR(HR) cell line tumors; assay: LN-AR(HR) cell line tumors in SCID mice (FIG. 19); assay type: in vivo; settings: 10 mg per kg body weight per day
# Text: (A) The relative tumor volume as a function of time shown for each set of mice. (B) Images of each set of mice with photon emission associated with luciferase activity at day 31 shown as color contours. (C) Rate of photon emission associated with luciferase activity shown at several times for each set of mice.
# tumor = assay: Dose regimens of NC53 on tumor volume and luciferase photon emission (FIGS. 17, 18); assay type: in vivo; settings: for tumor size: FIG. 17
# Text: FIG. 17 illustrates that under treatment with vehicle solution, tumors continued to increase in size.
compound,measurement,setting,value
"CNC(=O)c1ccc(N2C(=S)N(c3ccc(C#N)c(C(F)(F)F)c3)C(=O)C23CCC3)cc1F [NC53, N-methyl-4-[7-(4-cyano-3-trifluoromethylphenyl)-8-oxo-6-thioxo-5,7-diaza-spiro[3.4]oct-5-yl]-2-fluorobenzamide]",PSA levels of LN-AR cells,"AR; 100, 200, 500, and 1000 nM, FIG. 20",PSA levels of LN-AR cells decreased
same,PSA levels,"AR; LN-AR cells, FIG. 23",PSA levels decreased
same,urogenital tract weight and photon emission,urogenital tract,decrease in weight and photon emission
same,androgen receptor nuclear translocation,androgen receptor [1],inhibited androgen receptor nuclear translocation
same,androgen receptor protein level,androgen receptor [2],destabilized androgen receptor proteins; also recorded: androgen receptor protein is degraded
same,AR and Pol II recruitment to PSA enhancer and PSA promoter,[3],prevented androgen receptor (AR) recruitment and RNA polymerase II (Pol II) recruitment to PSA enhancer and to PSA promoter
same,tumor size and photon emission associated with luciferase activity,[4],decrease or stabilization of tumor size and a decrease in photon emission associated with luciferase activity
same,tumor size,tumor; 1 mg per kg body weight per day,"the rate of tumor increase decreased, and the size of the tumor appeared to be stabilizing after about 17 days"
same,tumor size,tumor; 10 mg per kg body weight per day,tumor size decreased with time
same,photon emission associated with luciferase activity,"tumor; 10 mg per kg body weight per day, day 17 vs day 0, FIG. 18",photon emission associated with luciferase activity decreased
